Results as given in paper PMC9306950 (Clinical Pharmacology in Drug Development, 2022).
Like-named read-outs stand apart in the source and are kept apart here.

Tests used:
[1] = plasma
[2] = Safety: treatment-emergent adverse events in study CL-0538; type: in vivo, healthy subjects
[3] = Safety: treatment-emergent adverse events in study CL-0537; type: in vivo, healthy subjects; settings: for TEAE headache, subjects / TEAE nasopharyngitis, subjects: CL-0537
[4] = for CL/F lower in the presence of roxadustat: concomitant roxadustat vs statin alone; for increase of AUCinf / increase of Cmax: statin dosed concomitantly with roxadustat vs statin alone
[5] = clinical; settings: human, in vivo; for AUC(0-inf): AUCinf
[6] = for AUC(0-inf) / Cmax / half-life / Tmax / AUC(0-t): human, in vivo; for AUC(0-inf): AUCinf; for AUC(0-t): AUClast
[7] = Safety: treatment-emergent adverse events in study CL-0541; type: in vivo, healthy subjects
[8] = atorvastatin 40 mg + roxadustat 200 mg, concomitant
[9] = statin + roxadustat 200 mg (steady state), concomitant, plasma
[10] = statin + roxadustat / statin alone
[11] = statin alone, single oral dose, plasma
[12] = po, mean (SD), statin alone, single oral dose, plasma
[13] = GLS mean for statin alone, statin alone
[14] = po, median (min-max), statin alone, single oral dose, plasma
[15] = 40 mg, mean (SD), simvastatin 40 mg alone, plasma
[16] = mean (SD), simvastatin administered 2 hours before roxadustat, plasma
[17] = mean (SD), simvastatin administered 4 hours after roxadustat, plasma
[18] = mean (SD), simvastatin administered 10 hours after roxadustat, plasma
[19] = median (min-max), simvastatin administered 2 hours before roxadustat, plasma
[20] = median (min-max), simvastatin administered 4 hours after roxadustat, plasma
[21] = median (min-max), simvastatin administered 10 hours after roxadustat, plasma
[22] = simvastatin administered 2 hours before roxadustat
[23] = simvastatin administered 4 hours after roxadustat
[24] = simvastatin administered 10 hours after roxadustat

Structure (SMILES): CC(C)c1c(C(=O)Nc2ccccc2)c(-c2ccccc2)c(-c2ccc(F)cc2)n1CC[C@@H](O)C[C@@H](O)CC(=O)O [Atorvastatin]
- tlag, mean (SD) [1, 8]: 0 (0.0) h
- tlag, median (min-max) [1, 8]: 0 (0–0) h
- tlag, mean (SD) ([1]; atorvastatin 40 mg alone): 0 (0.0) h
- tlag, median (min-max) ([1]; atorvastatin 40 mg alone): 0 (0–0) h
- TEAE dry mouth, subjects ([2]; CL-0538): 0.0%
- TEAE headache, subjects ([2]; CL-0538): 4.2%
- number of TEAEs considered possibly related to the study drug ([2]; investigator assessment): 2
- subjects with TEAEs considered possibly related to the study drug ([2]; investigator assessment): 2 (8.3%) n (%)

Structure (SMILES): CC(C)c1nc(N(C)S(C)(=O)=O)nc(-c2ccc(F)cc2)c1/C=C/[C@@H](O)C[C@@H](O)CC(=O)O [Rosuvastatin]
- TEAE headache, subjects [3]: 0.0%
- TEAE nasopharyngitis, subjects [3]: 0.0%
- number of TEAEs considered related to the study drug ([3]; investigator assessment): 2
- subjects with TEAEs considered related to the study drug ([3]; investigator assessment): 2 (7.1%) n (%)
- CL/F lower in the presence of roxadustat [4]: 66%
- AUCinf, GLS mean for statin alone ([4]; human, in vivo): 62 878 pg • h/mL
- AUCinf, mean (SD) ([4]; human, in vivo): 196 187 (95 367) pg • h/mL
- AUCinf, median (min-max) ([4]; human, in vivo): 177 873 (48 036–503 953) pg • h/mL
- AUClast, mean (SD) ([4]; human, in vivo): 192 156 (95 253) pg • h/mL
- AUClast, median (min-max) ([4]; human, in vivo): 173 565 (43 917–498 457) pg • h/mL
- Cmax, mean (SD) ([4]; human, in vivo): 22 980 (12 787) pg/mL
- Cmax, median (min-max) ([4]; human, in vivo): 19 811 (4059–58 463) pg/mL
- tlag, mean (SD) ([4]; human, in vivo): 0 (0.0) h
- tlag, median (min-max) ([4]; human, in vivo): 0 (0–0) h
- AUCinf, mean (SD) ([4]; human, in vivo, po): 67 613 (33 727) pg • h/mL
- AUCinf, median (min-max) ([4]; human, in vivo, po): 57 187 (21 336–165 242) pg • h/mL
- AUClast, mean (SD) ([4]; human, in vivo, po): 61 459 (34 796) pg • h/mL
- AUClast, median (min-max) ([4]; human, in vivo, po): 54 017 (0–159 223) pg • h/mL
- Cmax, mean (SD) ([4]; human, in vivo, po): 4939 (2991) pg/mL
- Cmax, median (min-max) ([4]; human, in vivo, po): 4062 (0–13 775) pg/mL
- tlag, mean (SD) ([4]; human, in vivo, po): 0 (0.0) h
- tlag, median (min-max) ([4]; human, in vivo, po): 0 (0–0) h
- CL/F, mean (SD) [4, 9]: 63.4 (35.8) L/h
- CL/F, median (min-max) [4, 9]: 56.22 (19.8–208) L/h
- AUCinf, GLS mean ratio (%) [4, 10]: 292.55%
- Cmax, GLS mean ratio (%) [4, 10]: 447.33%
- CL/F, mean (SD) [4, 11]: 185.3 (91.3) L/h
- CL/F, median (min-max) [4, 11]: 174.9 (60.5–469) L/h
- tmax, median (min-max) [4, 11]: 4.00 (3.00–6.02) h
- increase of AUCinf [4]: 2.93 fold
- increase of Cmax [4]: 4.47 fold
- AUC(0-inf) ([5]; GLS mean for roxadustat + statin): 0.184 µg·h/mL
- Cmax ([5]; GLS mean for statin alone): 4.65 ng/mL
- half-life ([5]; po, t1/2, mean (SD), statin alone, single oral dose, plasma): 15.5 h
- half-life ([5]; po, t1/2, median (min-max), statin alone, single oral dose, plasma): 15.2 h
- Tmax [5, 12]: 3.9 h

Structure (SMILES): CCC(C)(C)C(=O)O[C@H]1C[C@@H](C)C=C2C=C[C@H](C)[C@H](CC[C@@H](O)C[C@@H](O)CC(=O)O)[C@H]21 [Simvastatin acid]
- tlag, mean (SD) [4, 9]: 0.29 (0.35) h
- tlag, median (min-max) [4, 9]: 0 (0–1.02) h
- tlag, mean (SD) [4, 11]: 0.47 (0.31) h
- tlag, median (min-max) [4, 11]: 0.50 (0–1.00) h
- increase of AUCinf [4]: 1.85 fold
- increase of Cmax [4]: 2.76 fold
- AUC(0-inf) [5, 13]: 0.0246 µg·h/mL
- Cmax [5, 13]: 1.86 ng/mL
- Cmax [5, 12]: 2.17 ng/mL
- Cmax [5, 14]: 2.06 ng/mL
- half-life ([5]; po, t1/2, mean (SD)): 6.28 h
- half-life ([5]; po, t1/2, median (min-max)): 5.78 h
- Tmax [5, 12]: 5.7 h
- Tmax [5, 14]: 4.02 h
- half-life ([5]; t1/2, mean (SD)): 5.98 h
- half-life ([5]; t1/2, median (min-max)): 5.27 h
- AUC(0-inf) [6, 15]: 0.0243 µg·h/mL
- AUC(0-inf) ([6]; 40 mg, median (min-max), simvastatin 40 mg alone, plasma): 0.0212 µg·h/mL
- Cmax [6, 15]: 2.12 ng/mL
- half-life ([6]; 40 mg, t1/2, mean (SD), simvastatin 40 mg alone, plasma): 7 h
- half-life ([6]; 40 mg, t1/2, median (min-max), simvastatin 40 mg alone, plasma): 6.36 h
- Tmax [6, 15]: 5.38 h
- AUC(0-inf) ([6]; GLS mean for simvastatin alone, simvastatin alone): 0.021 µg·h/mL
- AUC(0-inf) [6, 16]: 0.0487 µg·h/mL
- AUC(0-inf) [6, 17]: 0.0847 µg·h/mL
- AUC(0-inf) [6, 18]: 0.0594 µg·h/mL
- AUC(0-inf) [6, 19]: 0.041 µg·h/mL
- AUC(0-inf) [6, 20]: 0.0703 µg·h/mL
- AUC(0-inf) [6, 21]: 0.0505 µg·h/mL
- AUC(0-t) [6, 16]: 0.0447 µg·h/mL
- AUC(0-t) [6, 17]: 0.0828 µg·h/mL
- AUC(0-t) [6, 18]: 0.0574 µg·h/mL
- AUC(0-t) [6, 19]: 0.0382 µg·h/mL
- AUC(0-t) [6, 20]: 0.0689 µg·h/mL
- AUC(0-t) [6, 21]: 0.0498 µg·h/mL
- Cmax [6, 16]: 4.99 ng/mL
- Cmax [6, 17]: 12.8 ng/mL
- Cmax [6, 18]: 7.13 ng/mL
- Cmax [6, 19]: 4.5 ng/mL
- Cmax [6, 20]: 11.6 ng/mL
- Cmax [6, 21]: 6.1 ng/mL
- half-life ([6]; t1/2, mean (SD), simvastatin administered 2 hours before roxadustat, plasma): 4.6 h
- half-life ([6]; t1/2, mean (SD), simvastatin administered 4 hours after roxadustat, plasma): 3.75 h
- half-life ([6]; t1/2, mean (SD), simvastatin administered 10 hours after roxadustat, plasma): 4.16 h
- half-life ([6]; t1/2, median (min-max), simvastatin administered 2 hours before roxadustat, plasma): 4.27 h
- half-life ([6]; t1/2, median (min-max), simvastatin administered 4 hours after roxadustat, plasma): 3.45 h
- Tmax [6, 16]: 5.55 h
- Tmax [6, 17]: 4.01 h
- Tmax [6, 18]: 4.4 h
- Tmax [6, 19]: 6 h
- Tmax [6, 21]: 4.01 h
- AUClast, mean (SD) ([6]; simvastatin 40 mg alone, plasma): 22.17 (11.98) ng • h/mL
- tmax, median (min-max) ([6]; simvastatin administered 4 hours after roxadustat, plasma): 4.00 (2.02–6.00) h

Structure (SMILES): CCC(C)(C)C(=O)O[C@H]1C[C@@H](C)C=C2C=C[C@H](C)[C@H](CC[C@@H]3C[C@@H](O)CC(=O)O3)[C@H]21 [Simvastatin]
- TEAE headache, subjects [3]: 0.0%
- TEAE nasopharyngitis, subjects [3]: 0.0%
- TEAE headache, subjects [7, 22]: 16.7%
- TEAE incidence: Overall [7, 22]: 9 (37.5%) n (%)
- total number of TEAEs [7, 22]: 12
- TEAE headache, subjects [7, 23]: 4.2%
- TEAE incidence: Overall [7, 23]: 6 (25.0%) n (%)
- number of TEAEs of dizziness possibly related to the study drug [7, 23]: 1
- subjects with TEAE of dizziness possibly related to the study drug [7, 23]: 1 (4.2%) n (%)
- total number of TEAEs [7, 23]: 8
- TEAE headache, subjects [7, 24]: 8.3%
- TEAE incidence: Overall [7, 24]: 4 (16.7%) n (%)
- number of TEAEs of dizziness possibly related to the study drug [7, 24]: 2
- subjects with TEAE of dizziness possibly related to the study drug [7, 24]: 1 (4.2%) n (%)
- total number of TEAEs [7, 24]: 9
- TEAE headache, subjects ([7]; simvastatin administered alone): 8.3%
- TEAE incidence: Overall ([7]; simvastatin alone): 5 (20.8%) n (%)
- total number of TEAEs ([7]; simvastatin alone): 6
- CL/F lower in the presence of roxadustat [4]: 40%
- increase of Cmax [4]: 1.87 fold
- lower mean CL/F ([6]; simvastatin 2 hours before roxadustat): 42%
- lower mean CL/F ([6]; simvastatin 4 hours after roxadustat): 51%
- lower mean CL/F ([6]; simvastatin 10 hours after roxadustat): 46%
